Laboratory results published in ChEMBL document CHEMBL1125047, “Novel glutamic acid derived cholecystokinin receptor ligands” (J Med Chem, 1990).

Molecular target: T1, Cholecystokinin receptor type A (Rattus norvegicus, UniProt P30551)
T1 sequence (P30551 whole entry): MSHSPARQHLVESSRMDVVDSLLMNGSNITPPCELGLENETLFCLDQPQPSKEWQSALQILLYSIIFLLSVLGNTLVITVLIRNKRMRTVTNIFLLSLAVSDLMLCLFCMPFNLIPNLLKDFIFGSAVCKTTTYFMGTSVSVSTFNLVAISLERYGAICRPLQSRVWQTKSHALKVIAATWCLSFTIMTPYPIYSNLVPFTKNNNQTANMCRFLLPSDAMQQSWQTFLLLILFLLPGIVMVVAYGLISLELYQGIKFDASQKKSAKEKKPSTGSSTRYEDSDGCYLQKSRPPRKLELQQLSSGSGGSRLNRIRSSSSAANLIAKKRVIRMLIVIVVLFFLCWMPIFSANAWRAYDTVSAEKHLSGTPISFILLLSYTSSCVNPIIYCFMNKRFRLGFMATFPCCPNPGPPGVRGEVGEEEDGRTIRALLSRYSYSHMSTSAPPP
Assay: Inhibition of binding of [125I]- CCK-33 to rat pancreas

Row | IC50 [nM] | SMILES
1 | 9300 | CCCCCN(CCCCC)C(=O)C(CCC(=O)OCc1ccccc1)NC(=O)Nc1ccc(Cl)cc1 (stereo not given)
2 | 1200 | CCCCCN(CCCCC)C(=O)C(CCC(=O)OCC)NC(=O)Nc1ccc(Cl)cc1 (stereo not given)
3 | 680 | CCCCCN(CCCCC)C(=O)C(CCC(=O)N1CCCC1)NC(=O)Nc1ccc(Cl)cc1 (stereo not given)
4 | 59 | O=C(O)CCC(NC(=O)c1cc2ccccc2[nH]1)C(=O)N(C1CCCCC1)C1CCCCC1 (single isomer, unassigned)
5 | 540 | CCCCCN(CCCCC)C(=O)C(CCC(=O)O)NC(=O)Nc1cccc(OC)c1 (single isomer, unassigned; 13)
6 | 4.5 | CCCCCN(CCCCC)C(=O)C(CCC(=O)O)NC(=O)Nc1cccc(OC)c1 (single isomer, unassigned; 14)
7 | 170 | CCCCCN(CCCCC)C(=O)C(CCC(=O)N1CCCC1)NC(=O)Nc1cccc(OC)c1 (single isomer, unassigned; 15)
8 | 120 | CCCCCN(CCCCC)C(=O)C(CCC(=O)N1CCCC1)NC(=O)Nc1cccc(OC)c1 (single isomer, unassigned; 16)
9 | 18 | CCCCCN(CCCCC)C(=O)C(CCC(=O)O)NC(=O)c1ccc(Cl)c(Cl)c1 (stereo not given) [LORGLUMIDE]
10 | 250000 | CCCN(CCC)C(=O)C(CCC(=O)O)NC(=O)c1ccccc1 (stereo not given) [PROGLUMIDE]
